Laboratory results reported in article PMC8145938, “Triphenilphosphonium Analogs of Chloramphenicol as Dual-Acting Antimicrobial and Antiproliferating Agents” (Antibiotics, 2021).

Columns and labels:
[1] = system: MDA-MB-231 and BT-549 TNBC-sensitive and chemoresistant cells; test: cancer cell proliferation / viability assay (MTT); format: cell-based; settings: 3 days treatment
Source text: We recently provided in vivo [67] and in vitro [68] evidence that certain bactericidal antibiotics suppress tumor growth by inducing mitochondrial dysfunction. […] These cells differ from the corresponding parental cells and display a different response to the same microenvironmental stimuli, allowing them to reduce their proliferating rate and survive chemotherapeutic treatment. Here, we tested the abovementioned CAM-TPP derivatives on chemoresistant triple negative breast cancer (TNBC) cell models, as well as on corresponding CSC-like spheroid cells. We created several relevant models based on TNBC cell lines, particularly MDA-MB-231 and BT-549, to determine their resistance to cyclophosphamide. To create CSC-like cells, parental cells were resuspended in nonadherent conditions to form tumorspheres.
The MDA-MB-231 (RRID: CVCL_0062) and BT-549 (RRID: CVCL_1092) cell lines were purchased from ATCC and cultured in DMEM/F12 (Gibco, Life Technologies, 31330-038) supplemented with 10% FBS, 1% Pen-Strep, 1% Sodium Pyruvate, and 1% L-glutamine. Chemoresistant cell lines were established with continuous treatment for 6 months with the anticancer therapeutic agent, cyclophosphamide (Rcyclo), as previously described. These cell lines were authenticated using short tandem repeat (STR) profiling within the last three years. […] The relative numbers of tumourspheres per well were counted manually. […]
The survival assay was performed essentially as described earlier. […] The absorbance was measured at 570 nm in Bio Spec 1601, Shimadzu spectrometer. […] The results were expressed as the means ± SEM. The data were analyzed using the GraphPad Prism 7 PRIZM computer software under the license of the Statistical Department (Vall’ d Hebron Hospital, Barcelona, Spain).

[2] = system: E. coli 70S ribosomes; set-up: method as in PMID 33916420; settings: displacement of BODIPY-ERY from 70S ribosomes; read-out: apparent dissociation constant (KDapp); cited from earlier work
[3] = system: ribosome stalling on trpL mRNA in a cell-free translation system; test: toeprinting (primer extension inhibition) assay on trpL mRNA; format: biochemical; settings: trpL mRNA template, 30 μM compound
Source text: To investigate the mechanism of action of CAM-C10-TPP and CAM-C14-TPP in the translation process, a primer extension inhibition assay (toeprinting) was used. This method allows for the unambiguous identification of drug-induced ribosome stalling sites along the mRNA, with single-nucleotide precision. This technique is also used to determine the context-specificity of antibiotic action. For this experiment, trpL mRNAs were chosen as the template, as in the pDualrep2 reporter system. […] Compared to the results obtained previously for CAM-C4-TPP using rst1 and rst2 mRNA templates, more unambiguous results were obtained using a trpL mRNA template. The main drug-induced ribosome stalling sites are different for CHL and CAM-Cn-TPP, and there are also CAM-Cn-TPP-specific stalling positions.
The toeprinting assay was carried out using trpL mRNA as a template, as described in [73], and the reactions were preincubated for 5 min with 30 μM of the tested compound.

[4] = system: B. subtilis cells; test: membrane potential by DiS-C3-(5) fluorescence; format: cell-based, Bacillus subtilis
Source text: Thus, we further examined the effect of CAM-Cn-TPP on the bacterial membrane potential of B. subtilis. In particular, the membrane potential of B. subtilis can be estimated from the fluorescence of the potential-sensitive dye, DiS-C3-(5), by measuring the changing fluorescence. The potential-dependent accumulation of the dye inside the bacterial cell causes quenching and leads to a decrease in fluorescence. Under the influence of substances that reduce the membrane potential, the dye is released and the fluorescence increases. […] Therefore, the action of CAM-Cn-TPP may have a double effect on bacterial cells and be based on the depolarization of the bacterial membrane by analogy with the mechanism of action of Cn-TPP [17].
The membrane potential of B. subtilis was estimated by measuring the fluorescence of the potential-dependent probe, DiS-C3-(5). B. subtilis from the overnight culture were seeded into a fresh LB medium, followed by growth for […], until reaching the optical density of 0.8 at 600 nm. Then, the bacteria were diluted 20-fold in a buffer containing 100 mM of KCl and 10 mM of Tris, pH 7.4. The fluorescence was measured at 670 nm (excitation at 630 nm) using a Fluorat-02-Panorama fluorimeter.

## O=C(CCCC[P+](c1ccccc1)(c1ccccc1)c1ccccc1)N[C@H](CO)[C@H](O)c1ccc([N+](=O)[O-])cc1 [CAM-C4-TPP]
[1]
  effect on proliferation of TNBC cell lines: but not CAM-C4-TPP, significantly reduced the proliferation of TNBC cell lines
[2]
  Kd: 610 ± 70 nM
[3]
  drug-induced ribosome stalling site: blocked the ribosome progression at Val6 (Figure 2D, red arrowhead) and slightly blocked it at Ile4
[4]
  concentration at which the compound takes effect on membrane potential: ≥ 10 µM
